Data set [1] deals with T1, ovine COX-1 (Ovis aries, UniProt P05979).
T1 construct: purchased Cayman Chemicals 560101
T1 sequence (P05979 25-600): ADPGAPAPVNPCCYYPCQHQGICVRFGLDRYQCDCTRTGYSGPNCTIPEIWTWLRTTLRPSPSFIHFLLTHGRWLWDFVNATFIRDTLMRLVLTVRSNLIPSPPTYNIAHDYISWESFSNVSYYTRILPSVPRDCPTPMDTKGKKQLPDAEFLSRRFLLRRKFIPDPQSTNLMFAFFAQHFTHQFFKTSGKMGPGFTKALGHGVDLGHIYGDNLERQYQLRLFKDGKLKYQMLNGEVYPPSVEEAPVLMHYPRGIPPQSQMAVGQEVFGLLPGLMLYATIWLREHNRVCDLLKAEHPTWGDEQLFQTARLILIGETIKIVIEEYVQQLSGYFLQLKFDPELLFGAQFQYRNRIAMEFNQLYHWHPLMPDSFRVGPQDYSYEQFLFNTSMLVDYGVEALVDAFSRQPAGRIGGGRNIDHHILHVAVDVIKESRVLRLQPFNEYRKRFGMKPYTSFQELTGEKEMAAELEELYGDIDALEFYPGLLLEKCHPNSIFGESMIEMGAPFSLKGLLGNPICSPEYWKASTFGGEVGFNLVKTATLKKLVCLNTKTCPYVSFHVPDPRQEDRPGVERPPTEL
The data set is described as follows: In vitro COX inhibition assay (EIA), COX-1. In kind it is biochemical. As to conditions: ovine COX-1, EIA, 0.25-1.5 mM, aspirin as positive control. On the procedure: An enzyme immunoassay (EIA) kit from Cayman Chemicals (catalogue number 560101) was used to assess the ability of Platin-A to inhibit ovine COX-1 and COX-2. COX inhibition assay was performed as per the manufacturer protocol. All stock solutions were prepared following manufactures instruction. This inhibition assay was carried out using a two-step process: COX reaction and EIA. COX reaction involved preparation of following samples.
(i) Background samples: COX-1 and COX-2 were inactivated by transferring 20 μL of each enzyme to an eppendorf tube and placing the tube in boiling water for 3 min. […] (ii) COX-1 or COX-2 100% initial activity samples: 950 μL of reaction buffer, 10 μL of heme, 10 μL of COX-1 or COX-2, and 20 μL of reaction buffer were added to each test tube. (iii) COX-1 or COX-2 inhibitor samples: 950 μL of reaction buffer, 10 μL of heme, 10 μL of COX-1 or COX-2 and 20 μL of COX-1 and COX-2 inhibitors under investigation, aspirin and Platin-A of different concentrations (0.25, 0.5, 0.75, 1, and 1.5 mM for COX-1; 0.75, 1, 1.25, 1.5, and 2 mM for COX-2) were added to each test tube.
All the samples were incubated for 5 min in water bath at 37° C. […]
For EIA, 100 μL of EIA buffer was added to non-specific binding well and 50 μL of EIA buffer to maximum binding wells. […] Absorbance was recorded at a wavelength of 410 nm using a plate reader.

A short description of data set [2]: Aspirin release from Platin-A by RP-HPLC after sodium ascorbate reduction. The note with it: acetonitrile-water, HPLC 280 nm. In kind it is physicochemical. On the procedure: The remarkable anticancer activity of cisplatin is due to its inherent proficiency to bind with the N7 position of guanine bases leading to DNA damage. To mimic the intracellular reduction of Platin-A to cisplatin and activity of generated cisplatin with DNA, Platin-A was reduced with sodium ascorbate in the presence of 2′-deoxyguanosine 5′-monophosphate sodium salt hydrate (5′-GMP) as a truncated version of DNA, and the products were analyzed by matrix-assisted laser desorption/ionization (MALDI)-time of flight (TOF)-mass spectrometry (MS). […] Binding studies with 5′-GMP provided strong evidence that cisplatin released upon reduction of Platin-A will interact with nuclear DNA efficiently. The release of the other drug, aspirin from Platin-A was analyzed by HPLC (FIG. 8). […] As time progress, formation of increasing amounts of salicylic acid, the main metabolite of aspirin was detected (FIG. 8). This observation supported the release of aspirin moiety from Platin-A in its pristine form or its final metabolite form for COX inhibitory and anti-inflammatory activities, respectively.
The ability of Platin-A to release aspirin under reducing atmosphere was studied RP-HPLC. Reduction of Platin-A (2.97 mg, 2 mM) was carried out using sodium ascorbate (5.28 mg, 10 mM) in acetonitrile-water (1:2, 3 mL) and reduction product was examined by HPLC. […]

Data on one compound can be found in patent publication US20170190726A9, “PRODRUG FOR RELEASE OF CISPLATIN AND CYCLOOXYGENASE INHIBITOR” (priority 2013, published 2017).

`CC(=O)Oc1ccccc1C(=O)[O][Pt]([NH2])([NH2])([OH])([Cl])[Cl]` [Platin-A]: the COX-1 inhibition entry in data set [1] is “very similar inhibition of both COX-1 and COX-2 as shown by aspirin”. The “release of aspirin upon reduction” value in data set [2] was “initially produces aspirin upon reduction”.
